# Patent US11590129B2, “Combination therapy with an antitumor alkaloid” (PHARMA MAR, S.A., priority 2010, dated 2023)
# Read-outs that look alike come from different tables or passages of the source.
# Tests used:
# [1] = tested on: IGROV-1 human ovarian adenocarcinoma cell line; experiment: cells
# Description: (§1) a. […] Briefly, cells were harvested and seeded in 96 well microtiter plates at a density of 5,000 cells in 150 μL of culture medium and incubated for 24 hours in drug-free medium before treatment with vehicle alone or test compounds for 72 h.
# (§2) The cytotoxic effect was measured by the MTT reduction assay, in which 3-(4,5-Dimethylthiazol-2-yl)-2,5-diphenyltetrazolium bromide, a tetrazole, which is reduced to purple formazan in the mitochondria of living cells, was used. MTT (50 μL of 1 mg/mL stock solution) was added to the wells and incubated for 8 hours at 37° C. until formazan crystals were formed. After gently removing the culture medium, DMSO was added to dissolve the insoluble purple formazan product into a colored solution. […] Results were expressed as percentage of control cell growth.
# (§3) b. In a second set of assays, A549 human tumor cells were incubated with PM01183 in combination with each of the agents mentioned above.
# (§4) As a visual aid, response values were plotted on a scatter plot with dose ratios given on the x-axis and % response values on the y-axis. […] In cases where response values at the two endpoints were approximately equivalent, points lying above or below this predicted line of additivity could be interpreted as representing antagonistic or synergistic drug interaction, respectively.
# (§5) Additional serial dilutions were prepared in serum-free culture medium to achieve a final 4× concentration. Aliquots of 50 μL of each diluted compound were added per well.
# IGROV-1 was the human ovarian adenocarcinoma cell line selected for this assay.
# [2] = tested on: PC-3 human prostate cancer cell line; experiment: cells
# Description: as §1, §2, §3, §4, §5
# PC-3 was the human prostate adenocarcinome cell line selected for this assay.
# [3] = tested on: A549 human lung carcinoma cell line; experiment: MTT cytotoxicity assay in A549 cells: IC50 of single agents and combinations with PM01183; type: cell-based; details: Homo sapiens, A549, 72 h
# Description: as §5
# A549 was the human lung carcinoma cell line selected for this assay.
# as §1, §2, §3, §4
# [4] = tested on: A673 human rhabdomyosarcoma cell line; experiment: cells; details: Homo sapiens, A673, 72 h
# Description: as §1, §2, §3, §4, §5
# A673 was the human rhabdomyosarcoma cell line selected for this assay.
# [5] = tested on: HepG2 human hepatocellular liver carcinoma cell line; experiment: MTT cytotoxicity assay in HepG2 cells: IC50 of single agents and combinations with PM01183; type: cell-based
# Description: as §1, §2, §3, §4, §5
# HepG2 was the human hepatocellular liver carcinoma cell line selected for this assay.
# [6] = tested on: U87-MG human glioblastoma cell line; experiment: cells
# Description: as §1, §2, §3, §4, §5
# U87-MG was the human glioblastoma cell line selected for this assay.
# [7] = tested on: SK-MEL-2 human melanoma cell line; experiment: cells
# Description: as §1, §2, §3, §4, §5
# SK-MEL-2 was the human melanoma cell line selected for this assay.
# [8] = tested on: HGC-27 human gastric carcinoma cell line; experiment: cells
# Description: as §1, §2, §3, §4, §5
# HGC-27 was the human gastric carcinoma cell line selected for this assay.
# [9] = tested on: RXF-393 human kidney carcinoma cell line; experiment: cells
# Description: as §1, §2, §3, §4, §5
# [10] = tested on: MDA-MB-231 human breast adenocarcinoma cell line; experiment: cells
# Description: as §1, §2, §3, §4, §5
# [11] = tested on: PANC-1 human pancreatic carcinoma cell line; experiment: cells
# Description: as §1, §2, §3, §4, §5
# PANC-1 was the human pancreatic carcinoma cell line selected for this assay.
# [12] = tested on: HT-29 human colon adenocarcinoma cell line; experiment: cells
# Description: as §1, §2, §3, §4, §5
# HT-29 was the human colon adenocarcinoma cell line selected for this assay.
# HGC-27 tumors = experiment: Human gastric tumor xenografts (HGC-27) in athymic nude mice, tumor volume % T/C; type: in vivo
# Description: Female athymic nude mice (Harlan Laboratories Models, S.L. (Barcelona, Spain) were utilized for all experiments. Animals were housed in individually ventilated cages, up to ten per cage in a 12-hour light-dark cycle at 21-23° C. and 40-60% humidity. The mice were allowed free access to irradiated standard rodent diet and sterilized water. Animals were acclimated for at least 5 days prior to tumor implantation with a tumor cell suspension.
# HGC-27 cells were grown at 37° C. with 5% CO2 in Iscove's modified Dulbeco's medium (IDMD).
# PM01183 was provided in the form of vials of lyophilized PM01183 cake which was reconstituted with water for infusion to a concentration of 0.2 mg/mL. The PM01183 stock solution was further diluted in 5% glucose solution for injection to the dosing formulation concentrations. Cisplatin and 5-fluorouracil were provided as solutions prepared by diluting the product with 0.9% saline solution for injection to the target final concentration.
# Dose level groups were administered either as single agents or in combination.
# Comparison of the median tumor volume in the treatment groups (T) to the median tumor volume in the control group (T/C×100%) was used for evaluation of the antitumor efficacy.
# [13] = cisplatin 1.5 mg/kg iv days 0,7
# [14] = cisplatin 3.0 mg/kg iv days 0,7
# [15] = cisplatin 4.5 mg/kg iv days 0,7
# [16] = cisplatin 6.0 mg/kg iv days 0,7
smiles,measurement,setting,value
"COc1cc([C@@H]2c3cc4c(cc3[C@@H](O[C@@H]3O[C@@H]5CO[C@@H](C)O[C@H]5[C@H](O)[C@H]3O)[C@H]3COC(=O)[C@H]23)OCO4)cc(OC)c1O [Etoposide, etoposide]",IC50,"[1]; Homo sapiens, IGROV-1, 72 h",3.06 µM
same,IC50,"[2]; Homo sapiens, PC-3, 72 h",48 µM
same,IC50,[3],0.782 µM
same,IC50,[4],1.55 µM
same,IC50,"[5]; Homo sapiens, HepG2, 72 h",10.4 µM
same,IC50,"[6]; Homo sapiens, U-87 MG, 72 h",18.5 µM
same,IC50,"[7]; Homo sapiens, SK-MEL-2, 72 h",2.89 µM
same,IC50,"[8]; Homo sapiens, HGC-27, 72 h",2.9 µM
same,IC50,"[9]; Homo sapiens, RXF 393, 72 h",20 µM
same,IC50,"[10]; Homo sapiens, MDA-MB-231, 72 h",4.8 µM
same,IC50,"[11]; Homo sapiens, PANC-1, 72 h",10 µM
same,IC50,"[12]; Homo sapiens, HT-29, 72 h",5.44 µM
"N.N.[Cl][Pt][Cl] [Cisplatin, cisplatin]",IC50,"[1]; IGROV-1, 72 hours drug exposure, MTT",70 µM
same,IC50,"[2]; PC-3, 72 hours drug exposure, MTT",110 µM
same,IC50,"[5]; HepG2, 72 hours drug exposure, MTT, read-out: IC50",50 µM
same,IC50,"[6]; U87-MG, 72 hours drug exposure, MTT",44 µM
same,IC50,"[7]; SK-MEL-2, 72 hours drug exposure, MTT",160 µM
same,IC50,"[8]; HGC-27, 72 hours drug exposure, MTT",80 µM
same,IC50,"[9]; RXF-393, 72 hours drug exposure, MTT",66.7 µM
same,IC50,"[10]; MDA-MB-231, 72 hours drug exposure, MTT",153 µM
same,IC50,"[11]; PANC-1, 72 hours drug exposure, MTT",147 µM
same,IC50,"[12]; HT-29, 72 hours drug exposure, MTT",220 µM
same,% T/C on day 0,HGC-27 tumors; [13],99.3%
same,% T/C on day 3,HGC-27 tumors; [13],78.1%
same,% T/C on day 5,HGC-27 tumors; [13],78.8%
same,% T/C on day 7,HGC-27 tumors; [13],82.6%
same,% T/C on day 10,HGC-27 tumors; [13],83.5%
same,% T/C on day 12,HGC-27 tumors; [13],86.6%
same,% T/C on day 14,HGC-27 tumors; [13],89.9%
same,% T/C on day 0,HGC-27 tumors; [14],99.0%
same,% T/C on day 3,HGC-27 tumors; [14],78.6%
same,% T/C on day 5,HGC-27 tumors; [14],80.0%
same,% T/C on day 7,HGC-27 tumors; [14],78.7%
same,% T/C on day 10,HGC-27 tumors; [14],81.3%
same,% T/C on day 12,HGC-27 tumors; [14],82.8%
same,% T/C on day 14,HGC-27 tumors; [14],85.1%
same,% T/C on day 0,HGC-27 tumors; [15],98.5%
same,% T/C on day 3,HGC-27 tumors; [15],90.5%
same,% T/C on day 5,HGC-27 tumors; [15],94.5%
same,% T/C on day 7,HGC-27 tumors; [15],90.2%
same,% T/C on day 10,HGC-27 tumors; [15],75.7%
same,% T/C on day 12,HGC-27 tumors; [15],73.7%
same,% T/C on day 14,HGC-27 tumors; [15],81.1%
same,% T/C on day 0,HGC-27 tumors; [16],97.7%
same,% T/C on day 3,HGC-27 tumors; [16],76.1%
same,% T/C on day 5,HGC-27 tumors; [16],79.0%
same,% T/C on day 7,HGC-27 tumors; [16],75.1%
same,% T/C on day 10,HGC-27 tumors; [16],64.4%
same,% T/C on day 12,HGC-27 tumors; [16],61.3%
same,% T/C on day 14,HGC-27 tumors; [16],72.7%
"CC[C@@]1(O)C(=O)OCc2c1cc1n(c2=O)Cc2cc3c(CN(C)C)c(O)ccc3nc2-1 [Topotecan, topotecan]",IC50,"[1]; Homo sapiens, IGROV-1, 72 h",0.3 µM
same,IC50,"[2]; Homo sapiens, PC-3, 72 h",0.633 µM
same,IC50,[3],0.8 µM
same,IC50,[4],0.024 µM
same,IC50,"[5]; Homo sapiens, HepG2, 72 h",1 µM
same,IC50,"[6]; Homo sapiens, U-87 MG, 72 h",0.75 µM
same,IC50,"[7]; Homo sapiens, SK-MEL-2, 72 h",0.437 µM
same,IC50,"[8]; Homo sapiens, HGC-27, 72 h",0.808 µM
same,IC50,"[9]; Homo sapiens, RXF 393, 72 h",0.393 µM
same,IC50,"[10]; Homo sapiens, MDA-MB-231, 72 h",0.166 µM
same,IC50,"[11]; Homo sapiens, PANC-1, 72 h",4.37 µM
same,IC50,"[12]; Homo sapiens, HT-29, 72 h",0.328 µM
